The nature of this data set: Electrical conductivity of solutions of the organic salts in non-aqueous solvents. It counts as physicochemical. On the procedure:
A variety of metal carboxylates were prepared in heptane by reacting versatic acid and 2-ethyl hexanoic acid directly with the metal of choice or with a metal base such as the hydride or hydroxide. Lithium, sodium, potassium, rubidium, calcium and gadolinium systems were synthesised.
A 1 molar solution of potassium bis(2-ethylhexyl) phosphate in Brij 30 was then prepared by dissolving 18.02 grams of the salt in 47.5 grams (50 ml) of the solubilising agent.
A 1 molar solution of AOT (Aldrich Chemicals) in Brij 30 was prepared by dissolving 22.23 grams of AOT in 47.5 grams (50 ml) of Brij 30.
The final AOT/neopentyl glycol/Brij 30 solution of FIG. 10 (i.e. 1 molar AOT and 2 molar neopentyl glycol in Brij 30) was then diluted with successive amounts of mineral spirits and the conductivity measured at each addition.

[1] abbreviates: 1 molar salt and 2 molar neopentyl glycol in Brij 30, diluted: 20% solution, 80% mineral spirits by volume.

For `CCCCC(CC)COC(=O)CC(C(=O)OCC(CC)CCCC)S(=O)(=O)O.[Na]` (centres unmarked) [AOT, sodium salt of bis(2-ethylhexyl) sulfosuccinate], the conductivity by setting is: (1 molar in Brij 30 with 2.0 molar neopentyl glycol, 25° C.) 33.5 ìS/cm; under setting [1], 1.5 ìS/cm; (1 molar solution in Brij 30) 15.7 ìS/cm.
Take `CCCCC(CC)COP(=O)([O-])OCC(CC)CCCC.[K+]` (centres unmarked) [potassium bis(2-ethylhexyl) phosphate]: the conductivity is, setting by setting: under setting [1], 3.2 ìS/cm; (1 molar solution in Brij 30) 45.5 ìS/cm.

Source of the values: patent publication US7399731B2, “Electrically conductive non-aqueous wellbore fluid” (M-I L.L.C., priority 2001, dated 2008).
